Experimental data reported in US10918714B2, “Human iNKT cell activation using glycolipids with altered glycosyl groups” (Academia Sinica, priority 2013, dated 2021).
Entries after “also recorded” stand apart in the source; their conditions may differ. Each block holds one compound with its values, some of them ahead of it.

Legend:
B6 wild type mice = assay: Murine serum cytokine/chemokine secretion after i.v. glycolipid, B6 WT mice; format: in vivo; details: i.v. 1 μg/mouse; for induction of serum cytokines/chemokines: sera 2 and 18 hr after injection
Procedure: (§1) All the glycolipids were dissolved in 100% DMSO at a concentration of 1-2 mg/ml. For in vivo experiments, all compounds were diluted to 10 μg/ml in saline just before injection of 100 μl diluted glycolipid or 100 μl 1% DMSO into mice. Pathogen-free C57BL/6 female mice aged 6-12 weeks were obtained from the National Laboratory Animal Center (Taipei, Taiwan). Jα18 knockout (KO) B6 mice were the gifts from Dr. Masaru Taniguchi (RIKEN Research Center for Allergy and Immunology, Yokohama, Japan). All the mice were maintained in pathogen free vivarium of Institute of Cellular and Organismic Biology, Academia Sinica (Taipei, Taiwan).
(§2) B6 WT or Jα18 KO mice were intravenously injected with vehicle or glycolipids at 0.1 or 1 μg/mouse. Serum was collected at 2 and 18 h after injection for measurement of cytokines/chemokines by Beadlyte® Mouse Cytokine kit (Millipore, N.Y.) and read by a Luminex® 200™ system (Luminex, Austin, Tex.).

B6 WT mice splenocytes = assay: FACS analyses of WT mouse immune cells (splenocytes) after glycolipid stimulation; format: in vivo; details: 1 μg/mouse, 72 hr post-injection
Procedure: (§3) B6 WT or Jα18 KO mice treated with specific glycolipid (1 μg/mouse) or vehicle (1% DMSO in PBS) were sacrificed at 72 hr post-injection and their spleens were harvested. After pressing spleens through 70 um strainer and lysis of erythrocytes, the nucleated cells were resuspended in PBS buffer containing azide (0.05%) and stained with antibodies recognizing the indicated cell surface antigens for 30 min at 4° C. After washing, the splenocytes were subjected to FACS analysis. The antibodies against CD3, CD4, CD8β, CD11c, CD80, and CD86 were obtained from BD Bioscience-Pharmingen.

mouse iNKT TCR = mouse iNKT TCR (Mus musculus, UniProt A0A0B4J1J9+P11609); assay: Binding avidity of mCD1d-loaded glycolipids to Vα14+ iNKT cells (ternary interaction); details: for Kd: mCD1d-glycolipid complex, DN3A4-1.2 murine iNKT hybridoma cells
Procedure: Briefly, murine CD1d:Ig dimer (BD Biosciences PharMingen, San Diego, Calif.) was loaded with glycolipids at a molar ratio of 1:10 or vehicle for overnight at 37° C. Murine 1.2 Vα14^+ iNKT cells were incubated with various doses of dimer-glycolipid complex in buffer containing azide (0.05%) for 30 min at 4° C. These cells were then stained with anti-mouse IgG1-PE mAb (A85-1) for another 30 min at 4° C., followed by washing, fixation with 4% paraformaldehyde (PFA), and the bound mCD1d dimer complexes were detected by flow cytometry. The binding curve and linear fit of the Scatchard transformation were plotted by Graphpad Prism software.

murine iNKT cell = details: as compared to αGalCer; cited from earlier work
human iNKT cell = details: as compared to αGalCer; cited from earlier work
Jα18 knockout mice [1] = assay: Murine serum cytokine/chemokine secretion after i.v. glycolipid, Jα18 knockout mice; format: in vivo; details: Jα18 KO mice, 1 μg/mouse
Procedure: as §1, §2

[2] = system: Jα18 KO mouse splenocytes; assay: FACS analyses of Jα18 KO mouse immune cells (splenocytes) after glycolipid stimulation; format: in vivo; details: Jα18 KO mice, 3 days after i.v. injection, 1 μg/mouse
Procedure: as §3

[3] = system: Human naïve Vα24+ iNKT cells; assay: Expansion of human iNKT cells; format: cell-based; details: DCs pulsed with glycolipid at 100 ng/ml, IL-2 culture
Procedure: Human naïve Vα24^+ iNKT cells were cultured with autologous immature CD14^+ DCs pulsed with the indicated glycolipid at 100 ng/ml or DMSO on day 2 for 18 h. On day 3, the suspension cells were transferred to a new dish, cultured in the presence of 50 U/ml IL-2 (R & D Systems), and replenished with fresh medium every 3 days. The percentage of Vα24^+/Vβ11^+ cells was determined by flow cytometry on day 9. The total cell number after expansion was calculated with the Guava ViaCount reagent (Millipore, USA) and detected by the Guava system with CytoSoft™ software containing the ViaCount module (Millipore, USA).
Vα24^+ iNKT cells and CD14^+ cells were isolated from peripheral blood cells as described previously.^19 Immature DCs were generated from the CD14^+ cells after 2-day incubation in the presence of 300 U/ml GM-CSF (R & D Systems) and 100 U/ml IL-4 (R& D Systems).

mCD1d dimer = molecular target: T1, mCD1d dimer (Mus musculus, UniProt P11609); assay: Binding strength of the binary complex between mCD1d and glycolipid (L363 antibody ELISA); details: KD from Scatchard transformation (FIG. 10D)
T1 construct: Ig fusion (dimer); purchased BD Biosciences PharMingen
T1 sequence (P11609 19-305 limits assumed): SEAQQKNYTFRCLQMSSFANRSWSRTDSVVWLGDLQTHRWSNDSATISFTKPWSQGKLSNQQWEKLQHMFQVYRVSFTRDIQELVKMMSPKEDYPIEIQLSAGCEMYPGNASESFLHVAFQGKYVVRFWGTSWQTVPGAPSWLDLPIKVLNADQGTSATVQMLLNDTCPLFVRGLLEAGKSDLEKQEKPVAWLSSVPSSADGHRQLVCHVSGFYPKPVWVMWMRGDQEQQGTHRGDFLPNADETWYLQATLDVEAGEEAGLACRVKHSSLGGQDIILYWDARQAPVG
T1 sequence (P01887 21-119 partner): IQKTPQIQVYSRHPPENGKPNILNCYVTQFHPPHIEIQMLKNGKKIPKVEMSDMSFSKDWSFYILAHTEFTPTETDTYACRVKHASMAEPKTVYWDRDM
Procedure: Different concentrations of mCD1d^di-glycolipid complexes coated on the ELISA plate were incubated with the saturated amounts of L363 antibody (BioLegend) conjugated with biotin, followed by streptavidin-HRP detection and ELISA measurement. The KD between L363 antibody and the indicated mCD1d^di-glycolipid complex was calculated from the linear regression of the Scatchard transformation of the L363 antibody binding curve using GraphPad Prism software. […] Next, the KD of the binary complex was determined as follows. Different concentrations of glycolipids were incubated with fixed amounts of mCD1d dimer at 37° C. overnight, and then mCD1d^di-glycolipid complexes were coated on the 96 well ELISA plate at 4° C. overnight. After washing and blocking with BSA at room temperature (RT) for 1 hr, L363 antibody conjugated with biotin was added for 30 min at RT, followed by incubation with streptavidin-HRP for 30 min at RT and detection with an ELSIA reader. KD values of the binary complex were calculated from the linear regression of the Scatchard transformation of the L363 antibody binding curve.

C1-pulsed splenocytes = assay: CD1d dimer staining of in vivo C1-pulsed splenocytes; format: binding; details: B6 WT splenocytes 3 days after C1 1 μg/mouse, CD3+/CD45R− gate
Procedure: FIGS. 11A-D show: CD1d dimer staining of in vivo C1-pulsed splenocytes. B6 WT splenocytes (n=3) were harvested 3 days after injection with C1 (1 μg/mouse) and stained with CD3, CD45R and the indicated dimer complex conjugated with RPE for 1 hr at 4 degrees Celsius. (11A) CD3+/CD45R− cells were gated to analyze the dimer staining. (11B) unloaded dimer was used as the control. (11C) mCD1d dimer loaded with 7DW8-5-Glc stained 17.1±0.8% of C1-pulsed splenocytes. (11D) mCD1d dimer loaded with 7DW8-5 stained 36.2±5.0% of C1-pulsed splenocytes.

human iNKT TCR = human iNKT TCR (Homo sapiens, UniProt A0A0B4J240+P15813); assay: Binding avidity of hCD1d-loaded glycolipids with Vα24+ iNKT cells (ternary interaction)
Procedure: Binding avidity of human CD1d-glycolipid complexes to Vα24^+ iNKT cells expanded by 7DW8-5 at 100 ng/ml was determined as described previously.^19
(§4) Vα24^+ iNKT cell lines expanded with 7DW8-5 or C1 were generated as follows. After irradiation with 2,000 rad, the immature DCs were cocultured with syngenic Vα24^+ iNKT cells in the presence of 7DW8-5 or C1 at 100 ng/ml for 1 day. The cells were expanded in the presence of 50 U/ml IL-2 for 10-14 days after lipid removal. The same procedures were repeated once for further stimulation and expansion of iNKT cells.

Jα18 knockout mice [4] = details: Jα18 KO mice; cited from earlier work
[5] = system: Murine DN3A4-1.2 Vα14+ iNKT hybridoma cells; assay: mCD1d vs. hCD1d swapping assay, murine iNKT cells; format: cell-based, mouse; details: presented by mCD1d (A20-CD1d) or hCD1d (HeLa-CD1d), 1, 0.1, 0.01 μg/ml
Procedure: (§5) Murine DN3A4-1.2 Vα14^+ iNKT hybridoma cells or C1-expanded Vα24^+ iNKT cells were pulsed with the indicated glycolipid antigen presented either by mCD1d (A20-CD1d cells) or hCD1d (HeLa-CD1d cells) at 1, 0.1, and 0.01 μg/ml. After 18 hr, the supernatants were harvested for the measurement of cytokine secretion(s). IL-2 released from Vα14^+ iNKT cells was determined by ELISA assay. IFN-γ, IL-4 and IL-2 secreted from Vα24^+ iNKT cells were detected using Beadlyte® Human Cytokine kit (Millipore, N.Y., USA) and Luminex® 200™ reading system.

[6] = system: C1-expanded Vα24+ iNKT cells; assay: mCD1d vs. hCD1d swapping assay, human iNKT cells; format: cell-based; details: presented by mCD1d (A20-CD1d) or hCD1d (HeLa-CD1d), 1, 0.1, 0.01 μg/ml
Procedure: as §4, §5

Kd (mouse iNKT TCR): 5.14 ± 0.11 nM
Structure (SMILES): CCC(=O)N[C@@H](CO[C@H]1OC(CO)[C@@H](O)C(O)C1O)[C@H](O)[C@H](O)CC (stereo partly drawn) [Compound C1-Glc]
induction of serum cytokines/chemokines (B6 wild type mice): triggered both cytokines and chemokines; also recorded: better than 7DW8-5-Glc
CD80+ DCs activated, as compared to 7DW8-5-Glc (B6 WT mice splenocytes): ~3.5 fold
CD86+ DCs activated, as compared to 7DW8-5-Glc (B6 WT mice splenocytes): ~3 fold
total splenocytes and DCs expanded, as compared to 7DW8-5-Glc (B6 WT mice splenocytes): ~1.3 fold
murine iNKT cell proliferation (murine iNKT cell): less stimulatory
human iNKT cell proliferation (human iNKT cell): more potent

binding avidity to mCD1d dimer relative to αGalCer (mCD1d dimer): ~20 fold
binding avidity of the murine ternary complex versus C34-Glc (mouse iNKT TCR): comparable
Structure (SMILES): CC[C@@H](O)[C@@H](O)[C@H](CO[C@H]1OC(CO)[C@@H](O)C(O)C1O)NC(=O)Cc1ccc(F)cc1 (stereo partly drawn) [Compound 7DW8-5-Glc]
levels of KC, MCP-1, IP-10 and MIG chemokines (B6 wild type mice; sera 2 and 18 hr): relatively high levels
levels of Th1 and Th2 cytokines (B6 wild type mice; sera 2 and 18 hr): very low levels
secretion of chemokines including KC, MCP-1, IP-10 and MIG (Jα18 knockout mice [1]): triggered the secretion
induction of cytokines (Jα18 knockout mice [1]; sera 2 and 18 hr after injection): no induction of cytokines
CD11chi monocyte-derived DCs expansion and activation [2]: significantly expanded and activated
total splenocytes, CD4+ T and CD8+ T cells [2]: No significant differences
expanding human iNKT cells in vitro (number of expanded iNKT cells on day 9) [3]: significantly (p=0.0009) better than 7DW8-5
C1-pulsed splenocytes stained by mCD1d dimer loaded with glycolipid (C1-pulsed splenocytes): 17.1±0.8%

Structure (SMILES): CCCCCCCCCCCCCCCCCCCCCCCCCC(=O)N[C@@H](CO[C@H]1O[C@H](CO)[C@H](O)[C@H](O)[C@H]1O)[C@H](O)[C@H](O)CCCCCCCCCCCCCC [Compound C1, α-galactosylceramide, reference compound]
Kd (mouse iNKT TCR): 1.24 ± 0.003 nM
Kd (human iNKT TCR; hCD1d-glycolipid complex, human Vα24+/Vβ11+ iNKT cells): 16.4 ± 4.2 nM
IFN-γ in the sera (Jα18 knockout mice [4]): not secreted

staining of murine iNKT cells with CD1d-glycolipid dimer (mouse iNKT TCR): lack of staining
staining of human iNKT cells with CD1d-glycolipid dimer (human iNKT TCR): lack of staining
Structure (SMILES): CCCCCCCCCCCCCC[C@@H](O)[C@@H](O)[C@H](CO[C@H]1O[C@H](CO)[C@@H](O)[C@H](O)[C@@H]1O)NC(=O)CCCCCCCCCCc1ccc(F)cc1 [Compound 7DW8-5-Man]
induction of serum cytokines/chemokines (B6 wild type mice): failed to induce any cytokines/chemokines
expansion of immune cells (B6 WT mice splenocytes): did not expand any types of immune cells
cytokine secretion from mouse iNKT cells [5]: could not stimulate
cytokine secretion from human iNKT cells [6]: could not stimulate

Kd (mouse iNKT TCR): 7.96 ± 1.27 nM
Structure (SMILES): CC[C@@H](O)[C@@H](O)[C@H](CO[C@H]1OC(CO)[C@@H](O)C(O)C1O)NC(=O)Cc1ccc(Oc2ccc(F)cc2)cc1 (stereo partly drawn) [Compound C34-Glc]
induction of serum cytokines/chemokines (B6 wild type mice): triggered both cytokines and chemokines; also recorded: better than 7DW8-5-Glc
CD80+ DCs activated, as compared to 7DW8-5-Glc (B6 WT mice splenocytes): ~2 fold
CD86+ DCs activated, as compared to 7DW8-5-Glc (B6 WT mice splenocytes): ~2 fold
